According to US7414041B2 (Trustees Of Tufts College, priority 1991, dated 2008):
Read-outs that look alike come from different tables or passages of the source.

Key:
E. faecalis 211 (Tet M) = test: MIC/MLC chart, analog with and without doxycycline; assay type: cell-based;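 also: broth checkerboard of two-fold drug dilutions, alone and mixed with doxycycline, bacteria near 5×10^5 cells/ml, 18 h incubation at 37 °C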
[1] = molecular target: T1, TET proteins responsible for tetracycline efflux (Class B tetracycline resistance determinant, strain D1-209) (Escherichia coli, UniProt P02980); test: biochemical; set-up: species or system E. coli
T1 construct: Everted vesicles, to which the TET proteins responsible for tetracycline efflux are attached; endogenous in cells; host or cells: E. coli strain D1-209 (everted membrane vesicles)

S. aureus 450 = test: MIC of tetracycline susceptible strains, C5 esters; assay type: cell-based; details: Staphylococcus aureus; S. aureus 450, alone; read-out: MIC
E. coli ML308 = test: MIC of tetracycline susceptible strains, C5 esters; assay type: cell-based; details: Escherichia coli; E. coli ML308, alone; read-out: MIC
E. faecalis ATCC 9790 = test: MIC of tetracycline susceptible strains, C5 esters; assay type: cell-based; details: Enterococcus faecalis, ATCC9790; E. faecalis ATCC 9790, alone; read-out: MIC
E. coli D1-299 (Tet A) = assay type: cell-based;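 also: E. coli at roughly 5×10^5 cells/ml in L broth, analog and doxycycline alone or mixed in two-fold dilutions from 50 to under 1 µg/ml, 18 h at 37 °C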
[2] = analog .195 μg/ml + doxycycline 1.56 μg/ml
[3] = analog .195 μg/ml + doxycycline 3.12 μg/ml
[4] = analog .195 μg/ml + doxycycline 6.25 μg/ml
[5] = analog .39 μg/ml + doxycycline 1.56 μg/ml
[6] = analog .39 μg/ml + doxycycline 3.12 μg/ml
[7] = analog alone .195 μg/ml (Analog Control)
[8] = analog alone .39 μg/ml (Analog Control)

T1 sequence (P02980 whole entry): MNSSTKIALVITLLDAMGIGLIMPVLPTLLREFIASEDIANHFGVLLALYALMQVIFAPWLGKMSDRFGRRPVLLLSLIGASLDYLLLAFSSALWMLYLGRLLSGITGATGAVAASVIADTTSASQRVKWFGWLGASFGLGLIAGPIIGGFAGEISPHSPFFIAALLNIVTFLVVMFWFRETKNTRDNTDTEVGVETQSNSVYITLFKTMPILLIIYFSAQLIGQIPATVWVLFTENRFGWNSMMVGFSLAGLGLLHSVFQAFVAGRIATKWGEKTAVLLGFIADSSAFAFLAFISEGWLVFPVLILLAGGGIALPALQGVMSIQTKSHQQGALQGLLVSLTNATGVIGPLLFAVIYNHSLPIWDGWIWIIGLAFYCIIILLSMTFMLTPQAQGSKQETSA

In the case of `CCC(=O)OC1C2C(=C(O)C3(O)C(=O)C(C(N)=O)=C(O)C(N(C)C)C13)C(=O)c1c(O)cccc1C2CSC1CCCC1` (stereo not shown) [Cmpd 5, 13-cyclopentylthio-5-proprionate-6-deoxy tetracycline], the “MIC/MLC chart: growth or killing” value (E. faecalis 211 (Tet M); [2]) is reported as “+”, the “MIC/MLC chart: growth or killing” value (E. faecalis 211 (Tet M); [3]) is reported as “+” and the “MIC/MLC chart: growth or killing” value (E. faecalis 211 (Tet M); [4]) is reported as “+”. The “MIC/MLC chart: growth or killing” value (E. faecalis 211 (Tet M); [5]) was “◯”, the “MIC/MLC chart: growth or killing” value (E. faecalis 211 (Tet M); [6]) was “◯” and the “MIC/MLC chart: growth or killing” value (E. faecalis 211 (Tet M); [7]) was “+”. The “MIC/MLC chart: growth or killing” value (E. faecalis 211 (Tet M); [8]) was “◯”, the IC50 [1] was 3.3 µM and the MIC (S. aureus 450) was 0.4 µg/mL. For the same compound, the MIC (E. coli ML308) was 20 µg/mL, the MIC (E. faecalis ATCC 9790) was 0.4 µg/mL and the “MIC/MLC chart: growth or killing” value (E. coli D1-299 (Tet A); analog 1.56 μg/ml + doxycycline 1.55 μg/ml) was “+”. For the same compound, the “MIC/MLC chart: growth or killing” value (E. coli D1-299 (Tet A); analog 1.56 μg/ml + doxycycline 3.1 μg/ml) was “+”, the “MIC/MLC chart: growth or killing” value (E. coli D1-299 (Tet A); analog 1.56 μg/ml + doxycycline 6.2 μg/ml) was “+” and the “MIC/MLC chart: growth or killing” value (E. coli D1-299 (Tet A); analog 3.12 μg/ml + doxycycline 1.53 μg/ml) was “+”. For the same compound, the “MIC/MLC chart: growth or killing” value (E. coli D1-299 (Tet A); analog 3.12 μg/ml + doxycycline 3.05 μg/ml) was “+”, the “MIC/MLC chart: growth or killing” value (E. coli D1-299 (Tet A); analog 3.12 μg/ml + doxycycline 6.1 μg/ml) was “+” and the “MIC/MLC chart: growth or killing” value (E. coli D1-299 (Tet A); analog 6.25 μg/ml + doxycycline 3.0 μg/ml) was “+”. The “MIC/MLC chart: growth or killing” value (E. coli D1-299 (Tet A); analog 6.25 μg/ml + doxycycline […]) was “+”, the “MIC/MLC chart: growth or killing” value (E. coli D1-299 (Tet A); analog 12.5 μg/ml + doxycycline 2.8 μg/ml) was “+” and the “MIC/MLC chart: growth or killing” value (E. coli D1-299 (Tet A); analog 12.5 μg/ml + doxycycline […]) was “+”. The “MIC/MLC chart: growth or killing” value (E. coli D1-299 (Tet A); analog 25 μg/ml + doxycycline 2.4 μg/ml) was “+”, the “MIC/MLC chart: growth or killing” value (E. coli D1-299 (Tet A); analog 25 μg/ml + doxycycline […]) was “+” and the “MIC/MLC chart: growth or killing” value (E. coli D1-299 (Tet A); analog 50 μg/ml + doxycycline 1.56 μg/ml) was “+”. The “MIC/MLC chart: growth or killing” value (E. coli D1-299 (Tet A); analog 50 μg/ml + doxycycline .78 μg/ml) was “+”, the “MIC/MLC chart: growth or killing” value (E. coli D1-299 (Tet A); [2]) was “+” and the “MIC/MLC chart: growth or killing” value (E. coli D1-299 (Tet A); [3]) was “+”. For the same compound, the “MIC/MLC chart: growth or killing” value (E. coli D1-299 (Tet A); [4]) was “+”, the “MIC/MLC chart: growth or killing” value (E. coli D1-299 (Tet A); analog .195 μg/ml + doxycycline 12.5 μg/ml) was “+” and the “MIC/MLC chart: growth or killing” value (E. coli D1-299 (Tet A); analog .195 μg/ml + doxycycline 25.0 μg/ml) was “+”. For the same compound, the “MIC/MLC chart: growth or killing” value (E. coli D1-299 (Tet A); [5]) was “+”, the “MIC/MLC chart: growth or killing” value (E. coli D1-299 (Tet A); [6]) was “+” and the “MIC/MLC chart: growth or killing” value (E. coli D1-299 (Tet A); analog .39 μg/ml + doxycycline 6.25 μg/ml) was “+”. The “MIC/MLC chart: growth or killing” value (E. coli D1-299 (Tet A); analog .39 μg/ml + doxycycline 12.5 μg/ml) was “+”, the “MIC/MLC chart: growth or killing” value (E. coli D1-299 (Tet A); analog .39 μg/ml + doxycycline 24.9 μg/ml) was “↓” and the “MIC/MLC chart: growth or killing” value (E. coli D1-299 (Tet A); analog .78 μg/ml + doxycycline 1.56 μg/ml) was “+”. For the same compound, the “MIC/MLC chart: growth or killing” value (E. coli D1-299 (Tet A); analog .78 μg/ml + doxycycline 3.12 μg/ml) was “+”, the “MIC/MLC chart: growth or killing” value (E. coli D1-299 (Tet A); analog .78 μg/ml + doxycycline 6.23 μg/ml) was “+” and the “MIC/MLC chart: growth or killing” value (E. coli D1-299 (Tet A); analog .78 μg/ml + doxycycline 12.4 μg/ml) was “◯”. For the same compound, the “MIC/MLC chart: growth or killing” value (E. coli D1-299 (Tet A); analog alone 1.56 μg/ml (Analog Control)) was “+”, the “MIC/MLC chart: growth or killing” value (E. coli D1-299 (Tet A); analog alone 3.12 μg/ml (Analog Control)) was “+” and the “MIC/MLC chart: growth or killing” value (E. coli D1-299 (Tet A); analog alone 6.25 μg/ml (Analog Control)) was “+”. For the same compound, the “MIC/MLC chart: growth or killing” value (E. coli D1-299 (Tet A); analog alone 12.5 μg/ml (Analog Control)) was “+”, the “MIC/MLC chart: growth or killing” value (E. coli D1-299 (Tet A); analog alone 25.0 μg/ml (Analog Control)) was “+” and the “MIC/MLC chart: growth or killing” value (E. coli D1-299 (Tet A); analog alone 50.00 μg/ml (Analog Control)) was “+”. The “MIC/MLC chart: growth or killing” value (E. coli D1-299 (Tet A); [7]) was “+”, the “MIC/MLC chart: growth or killing” value (E. coli D1-299 (Tet A); [8]) was “+” and the “MIC/MLC chart: growth or killing” value (E. coli D1-299 (Tet A); analog alone .78 μg/ml (Analog Control)) was “+”. For the same compound, the MLC in combination (E. coli D1-299 (Tet A); with 5.9 μg/ml doxycycline (Chart 8A)) was 6.25 µg/mL.
